Experimental data taken from patent publication US20230192878A1, “METHODS, THERAPIES AND USES FOR TREATING CANCER” (PFIZER INC., priority 2020, published 2023).

Experiments:
[1] = tested on: MM.1S; experiment: Soluble BCMA (sBCMA) shedding after GSI (ELISA); type: cell-based, Human; design: unit not given here; settings: Table 6 (sBCMA in supernatant, ELISA), 24 hours
[2] = tested on: Molp8; experiment: Soluble BCMA (sBCMA) shedding after GSI (ELISA); type: cell-based, Human; design: unit not given here; settings: Table 6 (sBCMA in supernatant, ELISA), 24 hours
[3] = tested on: OPM2-luc; experiment: BCMAxCD3 bispecific mediated cell killing with human T cells, with or without GSI; type: cell-based; settings: for OPM2 cell viability (% control): 60 hours, with or without 1 μM GSI
Method: (§1) CD3^+ T cells from PBMCs (Stem Cell Technologies) were negatively selected using EasySep Human T cell enrichment kit (Stem Cell Technologies). Multiple myeloma cells expressing luciferase (MM.1S-luc, OPM2-luc, H929-luc, Molp8-luc, RPM18226-luc) were treated with 1 μM GSI […]. After 24 hours, cells were seeded with 50,000 CD3^+ pan T cells in a clear 96-well V-bottom plate. Cells were further treated with a range of BCMAxCD3 bispecific antibody concentrations with or without 1 μM GSI. 60 hours after treatment, luciferase activity in treated cells was analyzed using NeoLite reagent kit (Perkin Elmer) and acquired on VictorX multimode plate reader (Perkin Elmer). Cell viability was calculated by dividing luciferase activity of treated cells over luciferase activity of untreated control (no BCMAxCD3 bispecific antibody added).

[4] = tested on: RPMI8226; experiment: as above; type: cell-based; settings: for RPMI8226 cell viability (% control): 60 hours, with or without 1 μM GSI
Method: as §1

[5] = tested on: MM.1S-luc; experiment: as above; type: cell-based; settings: for MM.1S cell viability (% control): 60 hours, with or without 1 μM GSI
Method: as §1

[6] = tested on: advanced multiple myeloma; experiment: First in human Phase 1 clinical study: patient response per IMWG; type: in vivo
Text: This Example illustrates an ongoing Phase 1 open-label, multicenter clinical study of PF-06863135 (BCMAxCD3 bispecific) as monotherapy and in combination with sasanlimab, lenalidomide or pomalidomide, in adult patients with advanced multiple myeloma who have relapsed from or are refractory to standard therapy. The study has been registered on ClinicalTrials.gov with identifier NCT03269136 and was first posted August 2017. Study results for Part 1 of the trial and additional arms for the study are described in this Example.
Part 1 of the Study is the […] single agent dose escalation arm at the dose levels of 0.1, 0.3, 1, 3, 10, 30, and 50 μg/kg Q1W by intravenous (IV) administration, and at the dose levels of 80, 130, 215, 360, 600 and 1000 μg/kg Q1W by subcutaneous (SC) administration. Upon reaching maximum tolerated dose (MTD)/maximum administered dose (MAD), patients can be treated at a dose level selected from the foregoing dose levels described in this paragraph, and below the MTD/MAD fora Q2W administration, both IV and SC, to further support the recommended phase 2 dose (RP2D) decision. For the study, dose limiting toxicity observation period is set at 21 days for Q1W dosing and 28 days for Q2W dosing. The treatment cycle, aka cycle, for Q1W dosing would be 3 weeks, and for Q2W dosing would be four weeks.
Clinical Outcome of Part 1 of the Study. As of 15 Apr. 2020, a total of 23 patients were enrolled in Part 1 of the study and had been treated with PF-06863135 administered intravenously (IV) at 0.1 (N=2), 0.3 (N=3), 1 (N=2), 3 (N=3), 10 (N=2), 30 (N=5), and 50 (N=6) μg/kg. As of Aug. 21, 2020, a total of 30 patients were enrolled in Part 1 of the study and had been treated with PF-06863135 administered subcutaneously (SC) at 80 (N=6), 130 (N=4), 215 (N=4), 360 (N=4), 600 (N=6) and 1000 (N=6) μg/kg. Safety and efficacy data were available for in 23 IV and 30 SC treated patients per IMWG (International Myeloma Working Group) criteria.
Part 1.1 of the Study is an alternative maintenance dose escalation arm for single agent PF-06863135. If excessive toxicity occurs or the maximum tolerated dose (MTD)/maximum administered dose (MAD) is reached at a dose level that is earlier than desired in Part 1 of the study described above, a priming dose will be administered one week prior to the day 1 cycle 1 administration of the dose (maintenance dose) at this dose level and for all subsequent dose levels in the dose escalation that may be initiated for Part 1.1. The priming dosing will be at a lower dose level than the maintenance dose.

[7] = tested on: H929-luc; experiment: BCMAxCD3 bispecific mediated cell killing with human T cells, with or without GSI; type: cell-based; settings: 60 hours, with or without 1 μM GSI
Method: as §1

[8] = 600 μg/kg priming, 1000 μg/kg Q1W SC, N = 7
[9] = 600 μg/kg priming, 1000 μg/kg Q2W SC, N = 13

Molecule: CCC[C@H](N[C@H]1CCc2cc(F)cc(F)c2C1)C(=O)Nc1cn(C(C)(C)CNCC(C)(C)C)cn1 [GSI, nirogacestat]
- BCMA (-PE) MFI ([1]; GSI 0.01 nM): 3794.2
- BCMA (-PE) MFI ([1]; GSI 0.1 nM): 5797.5
- BCMA (-PE) MFI ([1]; GSI 1 nM): 5143.1
- BCMA (-PE) MFI ([1]; GSI 2.5 nM): 3988.3
- BCMA (-PE) MFI ([1]; GSI 5 nM): 2453.6
- BCMA (-PE) MFI ([1]; GSI 10 nM): 1661.5
- BCMA (-PE) MFI ([1]; GSI 25 nM): 630.5
- BCMA (-PE) MFI ([1]; GSI 50 nM): 279.9
- BCMA (-PE) MFI ([1]; GSI 100 nM): 21.3
- BCMA (-PE) MFI ([1]; GSI 500 nM): 151.8
- BCMA (-PE) MFI ([1]; GSI 1000 nM): 350
- BCMA (-PE) MFI ([2]; Molp8, GSI 0.01 nM): 6887.3
- BCMA (-PE) MFI ([2]; Molp8, GSI 0.1 nM): 6363.4
- BCMA (-PE) MFI ([2]; Molp8, GSI 1 nM): 6072.9
- BCMA (-PE) MFI ([2]; Molp8, GSI 2.5 nM): 6765.5
- BCMA (-PE) MFI ([2]; Molp8, GSI 5 nM): 5989.3
- BCMA (-PE) MFI ([2]; Molp8, GSI 10 nM): 5958.9
- BCMA (-PE) MFI ([2]; Molp8, GSI 25 nM): 3021.7
- BCMA (-PE) MFI ([2]; Molp8, GSI 50 nM): 1044.3
- BCMA (-PE) MFI ([2]; Molp8, GSI 100 nM): 431.8
- BCMA (-PE) MFI ([2]; Molp8, GSI 500 nM): 87.3
- BCMA (-PE) MFI ([2]; Molp8, GSI 1000 nM): 51.6
- Enhancement of BCMAxCD3 bispecific antibody mediated cell killing by GSI ([3]; OPM2, 1 μM GSI): 21 ×
- Enhancement of BCMAxCD3 bispecific antibody mediated cell killing by GSI ([4]; RPMI8226, 1 μM GSI): 24 ×
- Enhancement of BCMAxCD3 bispecific antibody mediated cell killing by GSI ([5]; MM.1S, 1 μM GSI): 21 ×

Molecule: PF-06863135: heterodimeric humanized full-length bispecific antibody with one BCMA binding arm and one CD3 binding arm
- Patients who achieved a complete response ([6]; 50 μg/kg IV): 1 patient
- Patient Response: PR (patients) ([6]; 215 μg/kg SC, N = 4): 1
- Patient Response: SD (patients) ([6]; 215 μg/kg SC, N = 4): 1
- Patient Response: sCR (patients) ([6]; 215 μg/kg SC, N = 4): 2
- Patient Response: PD (patients) ([6]; 360 μg/kg SC, N = 4): 1
- Patient Response: VGPR (patients) ([6]; 360 μg/kg SC, N = 4): 2
- Patient Response: sCR (patients) ([6]; 360 μg/kg SC, N = 4): 1
- Patient Response: PD (patients) ([6]; 600 μg/kg SC, N = 6): 1
- Patient Response: SD (patients) ([6]; 600 μg/kg SC, N = 6): 1
- Patient Response: VGPR (patients) ([6]; 600 μg/kg SC, N = 6): 2
- Patient Response: sCR (patients) ([6]; 600 μg/kg SC, N = 6): 2
- Patient Response: CR (patients) [6, 8]: 2
- Patient Response: PR (patients) [6, 8]: 1
- Patient Response: VGPR (patients) [6, 8]: 1
- Patient Response: PD (patients) [6, 9]: 3
- Patient Response: PR (patients) [6, 9]: 3
- Patient Response: SD (patients) [6, 9]: 1
- Patient Response: VGPR (patients) [6, 9]: 4
- Patient Response: CR (patients) ([6]; 1000 μg/kg SC, N = 6): 1
- Patient Response: PD (patients) ([6]; 1000 μg/kg SC, N = 6): 1
- Patient Response: PR (patients) ([6]; 1000 μg/kg SC, N = 6): 1
- Patient Response: VGPR (patients) ([6]; 1000 μg/kg SC, N = 6): 3
- Subjects who achieved best response of stable disease ([6]; IV cohorts (0.3-50 μg/kg)): Ten
- Patients who achieved a minimal response ([6]; IV cohorts, at 3 μg/kg and 50 μg/kg IV): 2 patients
- Clinical efficacy ([6]; highest dose levels of 600 and 1000 μg/kg SC): clinical efficacy was seen in most patients
- OPM2 cell viability (% control) ([3]; BCMAxCD3 0.00064 nM): 83.8 ± 3.4 % control
- OPM2 cell viability (% control) ([3]; BCMAxCD3 0.0032 nM): 84.3 ± 3.1 % control
- OPM2 cell viability (% control) ([3]; BCMAxCD3 0.016 nM): 68.4 ± 2.4 % control
- OPM2 cell viability (% control) ([3]; BCMAxCD3 0.08 nM): 43.6 ± 6.4 % control
- OPM2 cell viability (% control) ([3]; BCMAxCD3 0.4 nM): 3.1 ± 0.8 % control
- OPM2 cell viability (% control) ([3]; BCMAxCD3 2 nM): 2.8 ± 0.8 % control
- OPM2 cell viability (% control) ([3]; BCMAxCD3 10 nM): 2 ± 0.2 % control
- OPM2 cell viability (% control) ([3]; BCMAxCD3 50 nM): 3.3 ± 0.3 % control
- H929 cell viability (% control) ([7]; BCMA × CD3 0.00001 nM): 80.2 ± 0.3 % control
- H929 cell viability (% control) ([7]; BCMA × CD3 0.00005 nM): 81.1 ± 0.2 % control
- H929 cell viability (% control) ([7]; BCMA × CD3 0.00026 nM): 79 ± 0.8 % control
- H929 cell viability (% control) ([7]; BCMA × CD3 0.00128 nM): 77.8 ± 3.3 % control
- H929 cell viability (% control) ([7]; BCMA × CD3 0.0064 nM): 81.2 ± 3^ % control
- H929 cell viability (% control) ([7]; BCMA × CD3 0.032 nM): 98.6 ± 1.2 % control
- H929 cell viability (% control) ([7]; BCMA × CD3 0.16 nM): 23.2 ± 7.2 % control
- H929 cell viability (% control) ([7]; BCMA × CD3 0.8 nM): 11.3 ± 1.5 % control
- H929 cell viability (% control) ([7]; BCMA × CD3 4 nM): 8.6 ± 3 % control
- RPMI8226 cell viability (% control) ([4]; BCMAxCD3 0.00064 nM): 113.2 ± 10.6 % control
- RPMI8226 cell viability (% control) ([4]; BCMAxCD3 0.0032 nM): 130.5 ± 19.5 % control
- RPMI8226 cell viability (% control) ([4]; BCMAxCD3 0.016 nM): 113.4 ± 1.3 % control
- RPMI8226 cell viability (% control) ([4]; BCMAxCD3 0.08 nM): 54.2 ± 16.9 % control
- RPMI8226 cell viability (% control) ([4]; BCMAxCD3 0.4 nM): 28.7 ± 13.6 % control
- RPMI8226 cell viability (% control) ([4]; BCMAxCD3 2 nM): 25.7 ± 5.5 % control
- RPMI8226 cell viability (% control) ([4]; BCMAxCD3 10 nM): 19.9 ± 1.1 % control
- RPMI8226 cell viability (% control) ([4]; BCMAxCD3 50 nM): 19.4 ± 5 % control
- MM.1S cell viability (% control) ([5]; BCMA × CD3 0.00001 nM): 80.6 ± 3.9 % control
- MM.1S cell viability (% control) ([5]; BCMA × CD3 0.00005 nM): 79.8 ± 2.9 % control
- MM.1S cell viability (% control) ([5]; BCMA × CD3 0.00026 nM): 78 ± 0.9 % control
- MM.1S cell viability (% control) ([5]; BCMA × CD3 0.00128 nM): 87.7 ± 4.4 % control
- MM.1S cell viability (% control) ([5]; BCMA × CD3 0.0064 nM): 108 ± 4.5 % control
- MM.1S cell viability (% control) ([5]; BCMA × CD3 0.032 nM): 2.5 ± 0.3 % control
- MM.1S cell viability (% control) ([5]; BCMA × CD3 0.16 nM): 1.7 ± 0.8 % control
- MM.1S cell viability (% control) ([5]; BCMA × CD3 0.8 nM): 2.4 ± 0.5 % control
- MM.1S cell viability (% control) ([5]; BCMA × CD3 4 nM): 1.3 ± 0.8 % control
